Tests used:
[1] = NAC thiol/disulfide pair; Noszal et al. (2000); cited from earlier work
[2] = effects counter to those reported for NAC; Samstrand et al (1999); cited from earlier work
fever = assay: Control of fever refractory to acetaminophen in a pediatric patient; format: in vivo, human; conditions: standard maximum daily dose of acetaminophen
From the text: A pediatric patient receives a standard maximum daily dose of acetaminophen to control a fever, but the acetaminophen is ineffective. The patient receives the same standard maximum daily dose of acetaminophen in the form of an acetaminophen-N-acetylcysteine composition.

[3] = in vivo; cited from earlier work
dogs = conditions: cited from earlier work
humans = conditions: cited from earlier work
felines = felines (cat family); cited from earlier work

CC(=O)N[C@@H](CS)C(=O)O [NAC, N-acetylcysteine]
half-cell potential [1]: about +63 mV

CC(=O)N[C@@H](CSSC[C@H](NC(C)=O)C(=O)O)C(=O)O [oxidized form of NAC]
bioactive dose relative to NAC [2]: 10-100 fold less than NAC

CC(=O)Nc1ccc(O)cc1 [acetaminophen, N-acetyl-para-aminophenol]
control of fever (fever): ineffective | binding to protein [3]: only slightly | volume of distribution [3]: 0.9 to 1.0 L/kg | dose at which toxicity is documented (dogs): > 40 mg/kg | dose at which toxicity is documented (humans): > 140 mg/kg | dose at which toxicity and death were demonstrated (felines): 5 to 10 mg/kg

Source: US20110014285A1, “N-ACETYL CYSTEINE COMPOSITIONS AND METHODS TO IMPROVE THE THERAPEUTIC EFFICACY OF ACETAMINOPHEN” (priority 2009, published 2011)
